Among the data in PubChem BioAssay (NCI) are TGI and GI50 values, retold here.

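Where inhibition never reached the appropriate level, the endpoint shown equals the highest concentration tested. Otherwise, values were interpolated linearly from a five-concentration, 48-hour dose response in 96-well plates. GI50 marks 50% less growth. TGI: total growth inhibition.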

Test in all cases: growth of human tumour cells (NCI), 48 h
The subject of assay [1] is SF-539 CNS.
The subject of assay [2] is BT-549 breast.
The test system of assay [3] is TK-10 renal.
For assay [4], the system named is HS 578T breast.
For assay [5], the system named is HCT-15 colon.
Assay [6] concerns MDA-MB-231 breast.
Assay [7] concerns SF-268 CNS.
Assay [8] has as its system RPMI-8226 leukemia.
The test system of assay [9] is EKVX NSCLC.
Assay [10] relates to SK-MEL-5 melanoma.

In the case of `COc1ccc2c(c1)CCc1c(-c3noc4c3CCc3cc(OC)ccc3-4)noc1-2`, the TGI in assay [1], in [2], in assay [3], in assay [4], in [5] and in assay [6] was greater than 100 µM each time. In addition, the TGI in [7], in [8], in assay [9] and in assay [10] was greater than 100 µM each time.

On to `COC(=O)C(C)NP(=O)(OCc1ccc(Cn2cnc3c(=O)[nH]c(N)nc32)cc1)Oc1ccccc1` (configuration not stated), for which the GI50 in assay [1], in assay [2], in assay [3], in assay [4], in assay [5] and in assay [6] was greater than 100 µM in each case. Moreover, the GI50 in assay [7], in assay [8], in assay [9] and in assay [10] was greater than 100 µM throughout. For the same compound, the TGI in assay [1], in assay [2], in [3], in [4], in assay [5] and in assay [6] was greater than 100 µM each time. Further, the TGI in assay [7], in [8], in assay [9] and in assay [10] was greater than 100 µM in each case.

Turning to `CN[C@]12CC3(C=CC(=O)C=C3)O[C@@]1(Cc1ccc(OC)cc1)N(C)C(=O)N2`, the GI50 in [1] is 1.9 µM; in assay [2], 1.52 µM; in assay [3], 2.48 µM; in assay [4], 4.62 µM; in [5] it was 1.64 µM; in [6], 4.2 µM. The GI50 in assay [7] was 2.85 µM; in [8] it was 1.63 µM; in [9], 4.23 µM; in [10] it was 1.65 µM. The TGI was 3.97 µM in assay [1]; 4.22 µM in assay [2]; 6.72 µM in assay [3]; greater than 100 µM in assay [4]; 10.3 µM in assay [5]; 15.1 µM in assay [6]. Further, the TGI in assay [7] amounted to 9.82 µM; in assay [8], 3.32 µM; in assay [9] it was 19.1 µM; in assay [10], 3.15 µM.

For `CCOC(=O)c1c(C)nc2ccc(Cl)cc2c1-c1ccccc1`, the GI50 in [1] is 19.6 µM; in [2], 22.5 µM; in assay [3], 34.4 µM; in assay [4], 19.6 µM; in [5] it was 16.9 µM; in assay [6] it was 17.1 µM. Further, the GI50 in assay [7] was 19.3 µM; in assay [8], 15.9 µM; in assay [9], 25.6 µM; in assay [10] it was 14.5 µM. The TGI is 39.9 µM in assay [1]; 57.2 µM in [2]; greater than 100 µM in assay [3]; 52.1 µM in [4]; 44.6 µM in assay [5]; 38.4 µM in [6]. In addition, the TGI in assay [7] was determined as 44.4 µM; in assay [8], 40 µM; in [9] it was 88.2 µM; in assay [10], 29 µM.

On to `COc1ccc(N(CC(=O)NCCC[Te]c2ccccc2)C(=O)CCSC2=C(C)C(=O)c3ccccc3C2=O)cc1`, for which the GI50 is 1.88 µM in [1]; 0.508 µM in [2]; 3.25 µM in assay [3]; 1.56 µM in assay [4]; 0.673 µM in assay [5]; 1.22 µM in assay [6]. Also, the GI50 in assay [7] is 1.11 µM; in [8], 1.02 µM; in [9], 0.326 µM; in assay [10] it was 1.56 µM. Further, the TGI came to 3.65 µM in assay [1]; 3.43 µM in [2]; 8.01 µM in assay [3]; 6.69 µM in assay [4]; 3.21 µM in assay [5]; 3.46 µM in assay [6]. For the same compound, the TGI came out at 3.99 µM in [7], 5.66 µM in assay [8], 2.98 µM in assay [9] and 2.96 µM in [10].

In the case of `O=[N+]([O-])c1cc(CCl)ccc1CCl`, the TGI in assay [1] is 7.14 µM; in [2] it was 11.1 µM; in assay [3], 8.23 µM; in assay [4], 11.4 µM; in assay [5] it was 3.64 µM; in assay [6] it was 4.5 µM. Besides, the TGI was 4.21 µM in [7], 3.91 µM in [8], 3.38 µM in assay [9] and 11.5 µM in [10].

With `CNNCc1ccc(C(=O)NC(C)C)cc1`, the TGI in assay [1], in [2], in assay [3], in assay [4], in assay [5] and in assay [6] was greater than 500 µM each time. Further, the TGI in [7], in assay [8], in [9] and in assay [10] was greater than 500 µM in each case. The GI50 in [5] and in assay [10] was greater than 500 µM in each case.

`C#CCN=C(N/N=C/c1ccc([N+](=O)[O-])o1)NS(=O)(=O)c1cc(C)c(Cl)cc1SCC(N)=O`: the GI50 in assay [1] was 17.3 µM; in [2], 1.79 µM; in assay [3] it was 22.2 µM; in assay [4] it was 19.8 µM; in [5], 22.1 µM; in assay [6] it was 11.4 µM. In addition, the GI50 is 15 µM in assay [7], 12.8 µM in assay [8], 17.8 µM in assay [9] and 4.14 µM in assay [10]. Besides, the TGI in assay [1] came to 31.7 µM; in [2] it was 9.43 µM; in assay [3], 38.3 µM; in assay [4], 49.5 µM; in [5] it was 56.4 µM; in [6], 26.4 µM. In addition, the TGI in [7] was 35.8 µM; in assay [8], 34.5 µM; in [9] it was 32.2 µM; in assay [10], 15.2 µM.
